Tested on: not given
Assay: not given
Type: physicochemical
Conditions: DMSO:MeOH (1:1 v/v), -20°C
Protocol: Each compound was independently weighed and the corresponding powder dissolved in the required volume of DMSO to give a 1 mg/mL stock solution of the compound that was sonicated for 5 minutes. The stock solution used for PBTZ169 was corrected for salt form of the analyte by applying the weighing factor (0.926). Due to the high purity of the PBTZ169 and the five metabolites, no additional correcting factors were applied for preparing compounds stock solutions. Stock solutions were prepared in 5 mL PP tubes and stored at -20°C. The stability of these solutions was verified over a period of 6 months (mean bias < 8%) and of 9 months (mean bias < 9%)
PBTZ169 and metabolites mixture solutions. Two distinct working solutions (WS) including PBTZ169 together with its five active metabolites were prepared: one for calibration standards and one for validation standards/quality control (QC) samples. Working solutions including all the analytes at 100 μg/mL were obtained by adding the required volumes of compounds stock solutions (50 μL) to 200 μL of a DMSO/MeOH (1:1 v/v) mixture in safe-lock 1.5 mL PP tubes. Spiking solutions for calibration, validation standards and QCs at the appropriate concentrations were prepared by applying sequential dilutions in DMSO/MeOH (1:1 v/v) mixture starting from the dedicated WS in safe-lock 1.5 mL PP tubes and thoroughly mixed. […]

SMILES | time working solutions are stable
Nc1cc(C(F)(F)F)cc2c(=O)nc(N3CCN(CC4CCCCC4)CC3)sc12 [Met amino] | ≥ 3 months

Tested on: Mycobacterium tuberculosis
Assay: not given
Conditions: not measured in this paper, listed as amino metabolite; cited from earlier work

SMILES | anti-TB activity in vitro (active / inactive)
Nc1cc(C(F)(F)F)cc2c(=O)nc(N3CCN(CC4CCCCC4)CC3)sc12 [Met amino] | devoid of anti-TB activity

Same assay, conditions: not measured in this paper; cited from earlier work

SMILES | anti-TB activity in vitro (active / inactive)
Nc1cc(C(F)(F)F)cc2c(=O)nc(N3CCN(CC4CCCCC4)CC3)sc12 [Met amino] | inactive

Tested on: not listed separately
Assay: Long-term stability in plasma
Type: in vitro ADME, human
Conditions: -20°C and -80°C
Protocol: Long-term stability in plasma. Stability in citrated plasma stored at -20°C and -80°C in suitable tubes for long-term storage (1, 3, 6 and 12 months) was evaluated at 1, 10, 100 and 1000 ng/mL. Deviations of the mean concentrations (n = 3) of samples measured at each time points from the nominal concentrations were calculated.

SMILES | time spiked plasma samples stability has been verified
Nc1cc(C(F)(F)F)cc2c(=O)nc(N3CCN(CC4CCCCC4)CC3)sc12 [Met amino] | 1 month
